Test results taken from patent US20240033244A1, “COMPOSITIONS AND METHODS FOR INHIBITING YTHDF1” (SHANGHAI INSTITUTE OF MATERIA MEDICA, CHINESE ACADEMY OF …, priority 2020, published 2024).

What was measured:
YTHDF1 mutant F480A = molecular target: T1, YTHDF1 mutant F480A (Homo sapiens, UniProt Q9BYJ9, F480A); assay: FP assay with YTHDF1 mutant F480A; assay type: binding
T1 construct: GST (N, cleaved yes); made in house; host or cells: E. coli BL21 (DE3)
Protocol: (§1) The protein YTHDF1 (361-559) (SEQ ID NO: 2) and its mutants (SEQ ID NOs: 4-13) were cloned into pGEx-6P-1 vector (obtained from YouBio Co, Ltd, Catalog NO: VT1258), and the His-YTHDF1 (361-559) (SEQ ID NO: 3) used in AlphaScreen Assay was cloned into modified pET28a vector (obtained from YouBio Co, Ltd, Catalog NO: VT1207). The vectors were transformed into E. coli BL21 (DE3) cells and cultured at 37° C. When OD value reached 0.6˜0.8, 1 mM Isopropyl-β-D-thiogalactopyranoside was added to overexpress the protein at 16° C. overnight. […] Then, the proteins were further purified via cation exchange (HiTrap SP, GE Healthcare) and finally through a Superdex 75 10/300 column (GE Healthcare). At last, the purified YTHDF1(361-559) and the mutants were kept in buffer which contains 20 mM Hepes (pH 7.4) and 200 mM NaCl. For His-YTHDF1 (361-559), the protein was purified via Ni-NTA chromatography (HisTrap FF, GE Healthcare), followed by cation exchange and Superdex 75 10/300 column in sequence. And the obtained protein was kept in the buffer with the same ingredients.
(§2) All of the YTHDF1 (361-559), the 5′-FAM labeled m^6A-containing mRNA (5′-FAM-[…] (m^6A) CUGUG-3′, SEQ ID NO: 14) and the candidate compounds were diluted with assay buffer (20 mM Hepes (pH 7.4), 50 mM NaCl, 0.01% (v/v) tween 20, 5% (v/v) glycerol). […] At last, the mixtures were measured by Envision Readers (PerkinElmer). […]

[1] = system: tumor infiltrating T cells; assay: Flow cytometry of exhaustion markers on tumor infiltrating T cells; assay type: in vivo, mouse; conditions: 14 days after tumor inoculation
Protocol: For flow cytometry analysis and DCs sorting, tumors, draining lymph nodes were gathered from mice and digested with 100 U/mL collagenase IV and 20 μg/mL DNase I at 37° C. for 40 min. Digestion was stopped by FACS buffer (PBS contains 2% FBS and 1 mM EDTA) and samples were filtered through 70-μm cell strainer. Samples were stained by specific antibodies in FACS buffer on ice for 30 min. Antibody information was described in Table 1 below. All samples were washed with FACS buffer after staining, cells were analyzed on BD Fortessa and sorted by AriaIII.
In addition, terminally exhausted T cells (PD-1 and Tim-3 double positive cells) were assessed 14 days after tumor inoculation with SAA treatment, and it was observed that the frequency of these tumor infiltrating terminally exhausted T cells (PD-1^+Tim-3^+) decreased in SAA treated mice (FIG. 18b), confirming the enhanced anti-tumor activity.

[2] = system: classical DCs in draining lymph node; assay: Ex vivo cross-priming by DCs sorted from draining lymph node of treated mice; assay type: in vivo, mouse; conditions: four DC subtypes from SAA treated B16-OVA bearing mice, day 12
Protocol: For in vitro cross-presentation study, mature FLT3L-DCs were harvested on day 9 and purified by EasySep Mouse CD11 c Positive Selection Kit II, then treated with 10 μM SAA or DMSO in IMDM medium (contain 10% bovine and 100 ng/mL FLT3L) for 10 h. […] Then antigen-obtained DCs were purified and co-cultured with naïve T cells from OT-1 mice at a ratio of 1:10 for 96 h. The co-culture medium was 1640 RPMI contains 10% fetal bovine with or without 1 μg/mL OT-1 (OVA 257-264) peptide. For ex vivo DCs cross-presentation assay, four types of DCs (migration CD11b DC, migration CD103′ DC, resident CD11b DC and resident CD8^+ DC) were sorted in draining lymph node from SAA treated B16-OVA bearing mice at day 12. These DCs were co-cultured with OT-1 naïve T cells in the ratio of 1:10 for 96 hours with or without OT-1 peptide. Supernatant IFN-γ production was detected via CBA assay.
Further, four types of classical DCs (resident CD11b^+, resident CD8α^+, migratory CD11b^+ and migratory CD103^+) in draining lymph node were sorted from SAA treated B16-OVA bearing wild-type mice on day 12. These DCs were co-cultured with OT-I T cells for 72 hours. Then, IFN-γ production was assessed by IFN-γ cytometric bead array.

YTHDF1 mutant H528A = molecular target: T2, YTHDF1 mutant H528A (Homo sapiens, UniProt Q9BYJ9, H528A); assay: FP assay with YTHDF1 mutant H528A; assay type: binding
T2 construct: GST (N, cleaved yes); made in house; host or cells: E. coli BL21 (DE3)
Protocol: as §1, §2

T1 sequence (Q9BYJ9 with tags, fused parts or gaps F480A): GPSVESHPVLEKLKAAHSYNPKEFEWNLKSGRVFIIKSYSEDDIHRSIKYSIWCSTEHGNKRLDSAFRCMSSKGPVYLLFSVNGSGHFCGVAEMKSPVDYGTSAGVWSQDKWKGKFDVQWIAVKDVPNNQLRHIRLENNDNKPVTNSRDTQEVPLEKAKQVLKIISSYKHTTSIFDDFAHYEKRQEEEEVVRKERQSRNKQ
T2 sequence (Q9BYJ9 with tags, fused parts or gaps H528A): as the sequence (Q9BYJ9 with tags, fused parts or gaps F480A) above, with A122F, H170A counted along it

For `O=C(/C=C/c1ccc(O)c(O)c1/C=C/c1ccc(O)c(O)c1)O[C@H](Cc1ccc(O)c(O)c1)C(=O)O` [SAA, Salvianolic Acid A], the “inhibitory activity against mutant binding to m6A versus wildtype” value (YTHDF1 mutant F480A) was “significantly weaker than that against wildtype YTHDF1”, the “CXCR5 expression of PD-1low population” value [1] was “much more CXCR5 than DMSO group” and the “frequency of tumor infiltrating terminally exhausted T cells (PD-1+Tim-3+)” value [1] was “decreased”. The “cross-priming of T cells (IFN-γ production)” value [2] was “better cross-priming of T cells than DMSO treated group” and the “inhibitory activity against mutant binding to m6A versus wildtype” value (YTHDF1 mutant H528A) was “significantly weaker than that against wildtype YTHDF1”.
